Consider two compounds from PMC4142866, “The chemoenzymatic synthesis of clofarabine and related 2′-deoxyfluoroarabinosyl nucleosides: the electronic and stereochemical factors determining substrate recognition by E. coli nucleoside phosphorylases” (Beilstein Journal of Organic Chemistry, 2014).

In this test the target is T1, recombinant E. coli purine nucleoside phosphorylase (PNP) (Escherichia coli, UniProt P0ABP8).
T1 construct: gene deoD
T1 sequence (P0ABP8 2-239): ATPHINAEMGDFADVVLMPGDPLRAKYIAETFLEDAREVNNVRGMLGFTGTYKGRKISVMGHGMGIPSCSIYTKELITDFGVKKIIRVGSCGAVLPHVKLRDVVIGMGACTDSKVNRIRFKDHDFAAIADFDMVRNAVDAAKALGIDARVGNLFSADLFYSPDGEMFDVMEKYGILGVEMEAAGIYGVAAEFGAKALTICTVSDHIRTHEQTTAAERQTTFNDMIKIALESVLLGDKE
Description: inhibition of PNP nucleoside synthesis. Format: biochemical. As to conditions: not a substrate; moderate inhibitor of the synthetic reaction; no value.

The structures appear in SMILES notation.

Take `Nc1nc(=O)n2ccn([C@@H]3O[C@H](CO)[C@@H](O)[C@@H]3O)c2n1` [4b, arabinoside 4b]: the “inhibition of PNP nucleoside synthesis” value is “nucleosides 4b and 5b are not substrates for E. coli PNP and moderately inhibit”. Regarding `O=c1[nH]cnc2c1cnn2[C@@H]1O[C@H](CO)[C@@H](O)[C@@H]1O` [5b, arabinoside 5b], the “inhibition of PNP nucleoside synthesis” value is “nucleosides 4b and 5b are not substrates for E. coli PNP and moderately inhibit”.
